Test results from patent publication US10765114B2, “4-amino-6-(pyridyl and 2-substitutedphenyl)-picolinates and 6-amino-2-(pyridyl and 2-substitutedphenyl)-pyrimidine-4-carboxylates and their use as herbicides” (Dow AgroSciences LLC, priority 2013, dated 2020).

What was measured:
Assay in all cases: Post-Emergent Test III (Wheat and Barley)
[1] = test system: TRZSS; assay type: in vivo; settings: for pest or weed control at 35 g/ha / pest or weed control at 70 g/ha / pest or weed control at 140 g/ha: Triticum aestivum, post-emergence, 504 h, postemergence, read-out: Visual Growth Reduction (%) 21 Days After Application, TRZSS; for pest or weed control at 35 g/ha: 35 g ai/ha; for pest or weed control at 70 g/ha: 70 g ai/ha; for pest or weed control at 140 g/ha: 140 g ai/ha; for GR20, TRZSS: effective dose for growth reduction of 20 percent, probit analysis
Protocol: (§1) Seeds of the desired test plant species were planted in Sun Gro MetroMix® 306 planting mixture, which typically has a pH of 6.0 to 6.8 and an organic matter content of about 30 percent, in plastic pots with a surface area of 103.2 square centimeters (cm^2). When required to ensure good germination and healthy plants, a fungicide treatment and/or other chemical or physical treatment was applied. The plants were grown for 7-36 days in a greenhouse with an approximate 14 h photoperiod which was maintained at about 18° C. during the day and 17° C. during the night. Nutrients and water were added on a regular basis and supplemental lighting was provided with overhead metal halide 1000-Watt lamps as necessary. The plants were employed for testing when they reached the second or third true leaf stage.
(§2) A weighed amount, determined by the highest rate to be tested, of each test compound was placed in a 25 mL glass vial and was dissolved in 4 mL of a 97:3 v/v mixture of acetone and DMSO to obtain concentrated stock solutions. […] The concentrated stock solutions obtained were diluted with 20 mL of an aqueous mixture containing acetone, water, isopropyl alcohol, DMSO, Agri-Dex crop oil concentrate, and X-77 surfactant in a 48:39:10:1.5:1.5:0.02 v/v ratio to obtain spray solutions containing the highest application rates. Additional application rates were obtained by serial dilution of 12 mL of the high rate solution into a solution containing 2 mL of 97:3 v/v mixture of acetone and DMSO and 10 mL of an aqueous mixture containing acetone, water, isopropyl alcohol, DMSO, Agri-Dex crop oil concentrate, and X-77 surfactant in a 48:39:10:1.5:1.5:0.02 v/v ratio to obtain ½×, ¼×, ⅛× and 1/16× rates of the high rate. Compound requirements are based upon a 12 mL application volume at a rate of 187 liters per hectare (L/ha). Formulated compounds were applied to the plant material with an overhead Mandel track sprayer equipped with 8002E nozzles calibrated to deliver 187 L/ha over an application area of 0.503 square meters at a spray height of 18 inches (43 cm) above the average plant canopy height. Control plants were sprayed in the same manner with the solvent blank.
(§3) The treated plants and control plants were placed in a greenhouse as described above and watered by subirrigation to prevent wash-off of the test compounds. After 21 dAYS, the condition of the test plants as compared with that of the untreated plants was determined visually and scored on a scale of 0 to 100 percent where 0 corresponds to no injury and 100 corresponds to complete kill and presented as indicated in Table A.
(§4) By applying the well-accepted probit analysis as described by J. Berkson in Journal of the American Statistical Society, 48, 565 (1953) and by D. Finney in “Probit Analysis” Cambridge University Press (1952), herbicidal injury of a specific compound at various rates can be used to calculate GR10, GR20, GR50, GR80 and GR90 values, which are defined as growth reduction factors that correspond to the effective dose of herbicide required to provide plant growth reduction (GR) of 10 percent, 20 percent, 50 percent, 80 percent and 90 percent, respectively. Probit analysis was applied to data collected from multiple dose rates of individual compounds utilizing the procedures explained in the following examples. The analysis of those dose rates is captured in the following tables.

[2] = test system: HORSS; assay type: in vivo; settings: for pest or weed control at 35 g/ha / pest or weed control at 70 g/ha / pest or weed control at 140 g/ha: Hordeum vulgare, post-emergence, 504 h, postemergence, read-out: Visual Growth Reduction (%) 21 Days After Application, HORSS; for pest or weed control at 35 g/ha: 35 g ai/ha; for pest or weed control at 70 g/ha: 70 g ai/ha; for pest or weed control at 140 g/ha: 140 g ai/ha; for GR20, HORSS: effective dose for growth reduction of 20 percent, probit analysis
Protocol: as §1, §2, §3, §4

[3] = test system: ALOMY (blackgrass); assay type: in vivo, Alopecurus myosuroides; settings: for pest or weed control at 35 g/ha / pest or weed control at 70 g/ha / pest or weed control at 140 g/ha: Alopecurus myosuroides, post-emergence, 504 h, postemergence, read-out: Visual Growth Reduction (%) 21 Days After Application, ALOMY; for pest or weed control at 35 g/ha: 35 g ai/ha; for pest or weed control at 70 g/ha: 70 g ai/ha; for pest or weed control at 140 g/ha: 140 g ai/ha; for GR50, ALOMY: effective dose for growth reduction of 50 percent; for GR50, ALOMY / GR80, ALOMY: probit analysis; for GR80, ALOMY: effective dose for growth reduction of 80 percent
Protocol: as §1, §2, §3, §4

[4] = test system: APESV (windgrass); assay type: in vivo, Apera spica-venti; settings: for pest or weed control at 35 g/ha / pest or weed control at 70 g/ha / pest or weed control at 140 g/ha: Apera spica-venti, post-emergence, 504 h, postemergence, read-out: Visual Growth Reduction (%) 21 Days After Application, APESV; for pest or weed control at 35 g/ha: 35 g ai/ha; for pest or weed control at 70 g/ha: 70 g ai/ha; for pest or weed control at 140 g/ha: 140 g ai/ha; for GR50, APESV: effective dose for growth reduction of 50 percent; for GR50, APESV / GR80, APESV: probit analysis; for GR80, APESV: effective dose for growth reduction of 80 percent
Protocol: as §1, §2, §3, §4

[5] = test system: KCHSC (kochia); assay type: in vivo, Kochia scoparia; settings: for pest or weed control at 35 g/ha / pest or weed control at 70 g/ha / pest or weed control at 140 g/ha: Bassia scoparia, post-emergence, 504 h, postemergence, read-out: Visual Growth Reduction (%) 21 Days After Application, KCHSC; for pest or weed control at 35 g/ha: 35 g ai/ha; for pest or weed control at 70 g/ha: 70 g ai/ha; for pest or weed control at 140 g/ha: 140 g ai/ha; for GR50, KCHSC: effective dose for growth reduction of 50 percent; for GR50, KCHSC / GR80, KCHSC: probit analysis; for GR80, KCHSC: effective dose for growth reduction of 80 percent
Protocol: as §1, §2, §3, §4

[6] = test system: SETVI (green foxtail); assay type: in vivo, Setaria viridis; settings: for pest or weed control at 35 g/ha / pest or weed control at 70 g/ha / pest or weed control at 140 g/ha: Setaria viridis, post-emergence, 504 h, postemergence, read-out: Visual Growth Reduction (%) 21 Days After Application, SETVI; for pest or weed control at 35 g/ha: 35 g ai/ha; for pest or weed control at 70 g/ha: 70 g ai/ha; for pest or weed control at 140 g/ha: 140 g ai/ha; for GR50, SETVI: effective dose for growth reduction of 50 percent; for GR50, SETVI / GR80, SETVI: probit analysis; for GR80, SETVI: effective dose for growth reduction of 80 percent
Protocol: as §1, §2, §3, §4

SMILES | pest or weed control at 35 g/ha [1] [%] | pest or weed control at 70 g/ha [1] [%] | GR20, TRZSS [1] [g ai/ha] | pest or weed control at 35 g/ha [2] [%] | pest or weed control at 70 g/ha [2] [%] | GR20, HORSS [2] [g ai/ha] | pest or weed control at 35 g/ha [3] [%] | pest or weed control at 70 g/ha [3] [%] | GR50, ALOMY [3] [g ai/ha] | GR80, ALOMY [3] [g ai/ha] | pest or weed control at 35 g/ha [4] [%] | pest or weed control at 70 g/ha [4] [%] | GR50, APESV [4] [g ai/ha] | GR80, APESV [4] [g ai/ha] | pest or weed control at 35 g/ha [5] [%] | pest or weed control at 70 g/ha [5] [%] | GR50, KCHSC [5] [g ai/ha] | GR80, KCHSC [5] [g ai/ha] | pest or weed control at 35 g/ha [6] [%] | pest or weed control at 70 g/ha [6] [%] | other results
COC(=O)c1nc(-c2ccc(C3CC3)nc2)c(F)c(N)c1Cl [Compound 49] | 75 to 84 | 85 to 94 | 1 | 75 to 84 | 85 to 94 | 1 | 0 to 29 | 30 to 44 | >140 | >140 | 85 to 94 | 75 to 84 | 1 | 24 | 95 to 100 | 95 to 100 | 9 | 17 | 30 to 44 | 95 to 100 | pest or weed control at 140 g/ha [1]: 85 to 94%; pest or weed control at 140 g/ha [2]: 85 to 94%; pest or weed control at 140 g/ha [3]: 45 to 59%; pest or weed control at 140 g/ha [4]: 85 to 94%; pest or weed control at 140 g/ha [5]: 85 to 94%; pest or weed control at 140 g/ha [6]: 95 to 100%; GR50, SETVI [6]: 28 g ai/ha; GR80, SETVI [6]: 57 g ai/ha
COC(=O)c1nc(-c2ccc(C(F)(F)F)nc2)c(F)c(N)c1Cl [Compound 59, methyl 4-amino-5-chloro-3-fluoro-6′-(trifluoromethyl)-[2,3′-bipyridine]-6-carboxylate] | 60 to 74 | 75 to 84 | 4 | 75 to 84 | 75 to 84 | 4 | 30 to 44 | 60 to 74 | 48 | 80 | 30 to 44 | 75 to 84 | 42 | 72 | 60 to 74 | 75 to 84 | 27 | 57 | 45 to 59 | 85 to 94 | GR50, SETVI [6]: 34 g ai/ha; GR80, SETVI [6]: 61 g ai/ha
COC(=O)c1nc(-c2ccc(C(F)(F)F)nc2)c(Cl)c(N)c1Cl [Compound 83] | 60 to 74 | 75 to 84 | 4 | 75 to 84 | 85 to 94 | 3 | 60 to 74 | 75 to 84 | 25 | 58 | 30 to 44 | 30 to 44 | 89 | >140 | 0 to 29 | 30 to 44 | 113 | >140 | 0 to 29 | 60 to 74 | GR50, SETVI [6]: 63 g ai/ha; GR80, SETVI [6]: 139 g ai/ha
COC(=O)c1nc(-c2ccc(Cl)c(F)c2OC)c(F)c(N)c1Cl [Compound 39, methyl 4-amino-3-chloro-6-(4-chloro-3-fluoro-2-methoxyphenyl)-5-fluoropicolinate] | 85 to 94 | 95 to 100 | 11 | 30 to 44 | 60 to 74 | 23 | 0 to 29 | 30 to 44 | >140 | >140 | 30 to 44 | 60 to 74 | 75 | >140 | 85 to 94 | 95 to 100 | 6 | 21 | 0 to 29 | 0 to 29 | pest or weed control at 140 g/ha [1]: 95 to 100%; pest or weed control at 140 g/ha [2]: 75 to 84%; pest or weed control at 140 g/ha [3]: 30 to 44%; pest or weed control at 140 g/ha [4]: 60 to 74%; pest or weed control at 140 g/ha [5]: 95 to 100%; pest or weed control at 140 g/ha [6]: 45 to 59%; GR50, SETVI [6]: >140 g ai/ha; GR80, SETVI [6]: >140 g ai/ha
COC(=O)c1nc(-c2ccc(OC(F)F)nc2)c(F)c(N)c1Cl [Compound 71] | 60 to 74 | 75 to 84 | 16 | 30 to 44 | 60 to 74 | 26 | 0 to 29 | 0 to 29 | >140 | >140 | 0 to 29 | 0 to 29 | >140 | >140 | 0 to 29 | 60 to 74 | 80 | >140 | 30 to 44 | 45 to 59 | pest or weed control at 140 g/ha [1]: 85 to 94%; pest or weed control at 140 g/ha [2]: 75 to 84%; pest or weed control at 140 g/ha [3]: 30 to 44%; pest or weed control at 140 g/ha [4]: 30 to 44%; pest or weed control at 140 g/ha [5]: 60 to 74%; pest or weed control at 140 g/ha [6]: 75 to 84%; GR50, SETVI [6]: 72 g ai/ha; GR80, SETVI [6]: >140 g ai/ha
